# Data taken from patent publication US7807854B2, “Effective use method of medicaments and method of preventing expression of side effect” (priority 2004, dated 2010).
# Columns and labels:
# Format in all cases: in vivo
# skin allograft = experiment: Prolonging effect on skin allograft survival between MHC-compatible rat strains (LEW donor, F344 recipient)
# From the text: Five animals were included per group, and all rats were bread in separate cages. LEW(RT1^l) was selected as donor, and F344(RT1^lvl) was selected as recipient. A part of dermis (1.8×1.8 cm) on the back of recipient was excised, and after giving several drops of penicillin solution (40,000 U/mL, in saline) thereon, a full thickness skin graft (1.8×1.8 cm) prepared from abdominal part of donor was put thereon. First-aid adhesive tape (30×72 mm) was applied so that the center pad thereof lies on the graft, and secured by binding aeration tape (adhesive bandage, 3.8×15 cm) therearound. At 5 days, the first-aid adhesive tape and the aeration tape were removed by cutting with scissors.
# Drug administration was conducted by orally administering 0.5 mL/100 g B.W. of drug once a day everyday from the day of skin transplantation. Control group was received distilled water. As the CsA, Sandimmun injection (50 mg/mL) diluted in distilled water was administered. As the FK506, the filling of Prograf capsule (Fujisawa Pharmaceutical Co., Ltd.) suspended in distilled water was administered. […] A combinational administration group was received a mixture prepared by mixing liquids to be administered right before administration.
# Grafts were observed everyday from fifth day of transplantation at which the first-aid adhesive tape was removed, and the condition that 90% or more of graft epithelium necrotized to turn brown was determined as occurrence of rejection. Number of days from transplantation to determination of rejection was defined as a survival time.
# Mean value of survival times for each group was calculated as a mean survival time (MST). In each group (n=5), the third-longest survival time was defined as a median value.
# adjuvant arthritis = experiment: Rat adjuvant arthritis (AA) model, hind limb volume increase; settings: for Inhibition of adjuvant arthritis (hind limb volume increase): oral once daily, Day 21
# Experimental: In a footpad of right hind limb of 6 or 7-week-old female LEW/Crj rat (Charles River Japan, Inc.), 0.05 mL (0.6 mg/animal) of killed M. butyricum (12 mg/mL) suspended in liquid paraffin was intradermally injected to cause arthritis (Day 0). Test compound was dissolved or suspended in pure water and orally administered in a volume of 0.5 mL per 100 g of body weight of rat. Adjuvant control was received only pure water. As for the combinational administration group, an aqueous solution of KNF-299 and an aqueous solution of MTX(Sigma) were administered after being mixed before administration. Administration was conducted once a day everyday from Day 0 to end of the experiment. Evaluation of arthritis was made by measuring volumes of left and right hind limbs by using a volume meter (MK-550, Muromachi Kikai) at Day 0, 3, 8, 14, 17, and 21, and determining an increase relative to hind limb at Day 0.
# transplanted heart = experiment: Prolonging effect on heart graft survival between MHC-incompatible rat strains (DA donor, LEW recipient)
# Experimental: Effect of KNF-299 was examined in allogeneic heart transplantation between MHC-incompatible rats. Using combination of DA (RT1^a) rat as a donor, and LEW (RT1^l) rat as a recipient, heterotopic heart transplantation in which heart of donor is joined to neck vessel of recipient with a cuff was conducted with reference to a literature (Microsurgery; 21, 16-21, 2001) or the like.
# Drug was administered orally once a day everyday from the day of heart transplantation. MPA was prepared from the product purchased from Wako Pure Chemical Industries, Ltd. so that the concentration was 20 mg/mL in a saline containing 0.5% carboxymethyl cellulose, 0.4% Tween 80, and 0.9% benzyl alcohol, and administered in 0.1 mL/100 g B.W.
# KNF-299 was dissolved in distilled water in a concentration of 0.06 mg/mL, and administered in 0.5 mL/100 g B.W. A control group was received a vehicle used for MPA administration liquid.
# Cardiac pulsation of the transplanted heart was checked by inspection or palpation, and determination of rejection was made when cardiac pulsation stopped. Number of days from transplantation to determination of rejection was defined as survival time. Mean value of survival time in each group was calculated as mean survival time (MST).
# [1] = KNF-299 0.03 mg/kg oral once daily, Test 2
# [2] = KNF-299 0.1 mg/kg oral once daily, third test (headed Test 2)
# [3] = FK506 3 mg/kg oral once daily, third test (headed Test 2)
structure (smiles),measurement,setting,value
"NC(CO)(CO)CCc1ccc(Sc2cccc(OCc3ccccc3)c2)cc1Cl [KNF-299, 2-amino-2-[4-(3-benzyloxyphenylthio)-2-chlorophenyl]ethyl-1,3-propanediol]","Survival time (day) of skin graft, MST",skin allograft; [1],9.0 days
same,"Survival time (day) of skin graft, Median",skin allograft; [1],9.0 days
same,"Survival time (day) of skin graft, MST",skin allograft; [2],8.8 days
same,"Survival time (day) of skin graft, Median",skin allograft; [2],9.0 days
same,"Survival time (day) of skin graft, Median","skin allograft; KNF-299 3 mg/kg oral once daily, Test 1",>30 days
same,Effect on skin graft survival (in words),skin allograft; KNF-299 3 mg/kg single administration,clear prolonging effect
same,Inhibition of adjuvant arthritis (hind limb volume increase),adjuvant arthritis; KNF-299 0.01 mg/kg alone,36%
same,Ability to prevent onset of adjuvant arthritis,"adjuvant arthritis; KNF-299 0.1 mg/kg p.o. once daily, FIG. 1",reaches almost maximum
same,"Survival time (day) of transplanted heart, MST",transplanted heart; KNF-299 0.3 mg/kg oral once daily,7.0 days
same,Prolonging effect on heart graft mean survival time compared to control group,transplanted heart; KNF-299 0.3 mg/kg single administration,1.2 days
"C=CC[C@@H]1/C=C(\C)C[C@H](C)C[C@H](OC)[C@H]2O[C@@](O)(C(=O)C(=O)N3CCCC[C@H]3C(=O)O[C@H](/C(C)=C/[C@@H]3CC[C@@H](O)[C@H](OC)C3)[C@H](C)[C@@H](O)CC1=O)[C@H](C)C[C@@H]2OC [FK506, tacrolimus, reference compound]","Survival time (day) of skin graft, MST",skin allograft; [3],9.2 days
same,"Survival time (day) of skin graft, Median",skin allograft; [3],9.0 days
"CN(Cc1cnc2nc(N)nc(N)c2n1)c1ccc(C(=O)N[C@@H](CCC(=O)O)C(=O)O)cc1 [MTX, methotrexate]",Inhibition of adjuvant arthritis (hind limb volume increase),"adjuvant arthritis; MTX 0.025 mg/kg alone, not significant",20%
same,Ability to prevent onset of adjuvant arthritis,"adjuvant arthritis; MTX 0.03 mg/kg oral once daily, FIG. 2",not observed
same,Inhibition of adjuvant arthritis (hind limb volume increase),"adjuvant arthritis; MTX 0.05 mg/kg alone, not significant",35%
same,Ability to prevent onset of adjuvant arthritis,"adjuvant arthritis; MTX 0.1 mg/kg oral once daily, FIG. 2",reached maximum
"COc1c(C)c2c(c(O)c1C/C=C(\C)CCC(=O)O)C(=O)OC2 [MPA, mycophenolic acid, reference compound]","Survival time (day) of transplanted heart, MST",transplanted heart; MPA 20 mg/kg oral once daily,>54.4 days
same,Rejection preventing effect on transplanted heart (in words),transplanted heart; MPA 20 mg/kg single administration,insufficient
